# Measured values from PMC7157764, “Avoiding Drug Resistance by Substrate Envelope-Guided Design: Toward Potent and Robust HCV NS3/4A Protease Inhibitors” (mBio, 2020).
# Legend:
# [1] = biological target: T1, HCV NS3/4A protease D168A variant (Hepatitis C virus genotype 1a, UniProt P27958, C1185S/D1194A); format: biochemical; conditions: for Ki: 2 nM protease preincubated 1 h at room temperature with inhibitor, pH 7.5, 200 nM fluorogenic substrate, Morrison equation global fit, error from global fit of at least three replicates
# T1 construct: His tag (cleaved yes); made in house; host or cells: Escherichia coli BL21(DE3), pET28a
# [2] = biological target: T2, HCV NS3/4A protease GT1a WT (Hepatitis C virus genotype 1a, UniProt P27958, C1185S); format: biochemical; conditions: for Ki: 2 nM protease preincubated 1 h at room temperature with inhibitor, pH 7.5, 200 nM fluorogenic substrate, Morrison equation global fit, error from global fit of at least three replicates; for Fold increase in potency against WT compared with the parent compound: relative to parent compound, WT protease
# T2 construct: His tag (cleaved yes); made in house; host or cells: Escherichia coli BL21(DE3), pET28a
# [3] = test system: HCV NS3/4A protease D168A variant; format: biochemical, Hepatitis C virus genotype 1a
# T2 sequence (P27958 1027-1208 C1185S): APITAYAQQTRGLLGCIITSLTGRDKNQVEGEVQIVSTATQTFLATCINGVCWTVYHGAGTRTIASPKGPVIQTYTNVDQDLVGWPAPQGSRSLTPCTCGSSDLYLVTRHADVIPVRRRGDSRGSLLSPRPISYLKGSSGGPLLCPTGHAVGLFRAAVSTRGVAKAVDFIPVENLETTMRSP
# T1 sequence (P27958 1027-1208 C1185S/D1194A): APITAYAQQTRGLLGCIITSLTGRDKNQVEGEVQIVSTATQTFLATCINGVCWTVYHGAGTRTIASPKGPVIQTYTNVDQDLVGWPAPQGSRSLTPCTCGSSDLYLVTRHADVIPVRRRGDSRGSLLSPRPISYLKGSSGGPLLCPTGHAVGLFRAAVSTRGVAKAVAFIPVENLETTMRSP
smiles,measurement,setting,value
"CCc1nc2ccc(OC)cc2nc1O[C@@H]1C[C@H]2C(=O)N[C@]3(C(=O)NS(=O)(=O)C4CC4)C[C@H]3/C=C\CCCCC[C@H](NC(=O)OC(C)(C)C)C(=O)N2C1 [5172-mcP1P3, reference compound]",Ki,[1],82.4 ± 4.4 nM
same,Ki,[2],3.29 ± 0.52 nM
COc1ccc2nc(C)c(O[C@@H]3C[C@H]4C(=O)N[C@]5(C(=O)NS(=O)(=O)C6(C)CC6)C[C@H]5/C=C\CCCCC[C@H](NC(=O)OC5(C)CC5)C(=O)N4C3)nc2c1 [P4-1],"Fold change of Ki, D168A relative to WT",[3],6 fold
same,Fold increase in potency against D168A compared with the parent compound,[1],~2 fold
same,Ki,[1],27.9 ± 4.1 nM
same,Ki,[2],4.44 ± 0.3 nM
COc1ccc2nc(C)c(O[C@@H]3C[C@H]4C(=O)N[C@]5(C(=O)NS(=O)(=O)C6(C)CC6)C[C@H]5/C=C\CCCCC[C@H](NC(=O)OC5(C)CCC5)C(=O)N4C3)nc2c1 [P4-2],"Fold change of Ki, D168A relative to WT",[3],33 fold
same,Ki,[1],46.4 ± 3.4 nM
same,Ki,[2],1.4 ± 0.13 nM
same,Fold increase in potency against WT compared with the parent compound,[2],4 fold
CCC1(OC(=O)N[C@H]2CCCCC/C=C\[C@@H]3C[C@@]3(C(=O)NS(=O)(=O)C3(C)CC3)NC(=O)[C@@H]3C[C@@H](Oc4nc5cc(OC)ccc5nc4C)CN3C2=O)CCCC1 [P4-5],"Fold change of Ki, D168A relative to WT",[3],17 fold
same,Ki,[1],21.7 ± 2.3 nM
same,Ki,[2],1.29 ± 0.05 nM
COc1ccc2nc(C)c(O[C@@H]3C[C@H]4C(=O)N[C@]5(C(=O)NS(=O)(=O)C6(C)CC6)C[C@H]5/C=C\CCCCC[C@H](NC(=O)OC5CCCCC5)C(=O)N4C3)nc2c1 [P4-6],"Fold change of Ki, D168A relative to WT",[3],14 fold
same,Ki,[1],12.7 ± 1.2 nM
same,Ki,[2],0.94 ± 0.25 nM
COc1ccc2nc(C)c(O[C@@H]3C[C@H]4C(=O)N[C@]5(C(=O)NS(=O)(=O)C6(C)CC6)C[C@H]5/C=C\CCCCC[C@H](NC(=O)OC5C[C@@H]6C[C@@H]6C5)C(=O)N4C3)nc2c1 (stereo partly shown) [P4-7],"Fold change of Ki, D168A relative to WT",[3],4 fold
same,Fold increase in potency against D168A compared with grazoprevir,[1],~20 fold
same,Fold increase in potency against D168A compared with the parent compound,[1],~20 fold
same,Ki,[1],2.3 ± 0.7 nM
same,Ki,[2],0.54 ± 0.2 nM
same,Fold increase in potency against WT compared with the parent compound,[2],approximately 6.5 fold
COC(=O)N[C@H](C(=O)N[C@H]1CCCCC/C=C\[C@@H]2C[C@@]2(C(=O)NS(=O)(=O)C2(C)CC2)NC(=O)[C@@H]2C[C@@H](Oc3nc4cc(OC)ccc4nc3C)CN2C1=O)C(C)C [P4P5-1B],"Fold change of Ki, D168A relative to WT",[3],8 fold
same,Ki,[1],102 ± 6.8 nM
same,Ki,[2],13 ± 0.8 nM
COC(=O)NC1(C(=O)N[C@H]2CCCCC/C=C\[C@@H]3C[C@@]3(C(=O)NS(=O)(=O)C3(C)CC3)NC(=O)[C@@H]3C[C@@H](Oc4nc5cc(OC)ccc5nc4C)CN3C2=O)CCCC1 [P4P5-5],"Fold change of Ki, D168A relative to WT",[3],30 fold
same,Ki,[1],931 ± 70 nM
same,Ki,[2],31 ± 2.74 nM
